According to patent publication US9550772B2, “Azaindole derivatives as multi kinase inhibitors” (ORIBASE PHARMA, priority 2012, dated 2017):
Where two headings read alike, the source gives them in different places.

What was measured:
[1] = target: T1, SRC (Homo sapiens, UniProt P12931); experiment: In vitro kinase assay (Z'-LYTE, Invitrogen); assay type: biochemical; conditions: compound at 100 nM, ATP Km apparent, read-out: % of inhibition of the kinase compared to the control
T1 construct: purchased Invitrogen
T1 sequence (P12931 whole entry): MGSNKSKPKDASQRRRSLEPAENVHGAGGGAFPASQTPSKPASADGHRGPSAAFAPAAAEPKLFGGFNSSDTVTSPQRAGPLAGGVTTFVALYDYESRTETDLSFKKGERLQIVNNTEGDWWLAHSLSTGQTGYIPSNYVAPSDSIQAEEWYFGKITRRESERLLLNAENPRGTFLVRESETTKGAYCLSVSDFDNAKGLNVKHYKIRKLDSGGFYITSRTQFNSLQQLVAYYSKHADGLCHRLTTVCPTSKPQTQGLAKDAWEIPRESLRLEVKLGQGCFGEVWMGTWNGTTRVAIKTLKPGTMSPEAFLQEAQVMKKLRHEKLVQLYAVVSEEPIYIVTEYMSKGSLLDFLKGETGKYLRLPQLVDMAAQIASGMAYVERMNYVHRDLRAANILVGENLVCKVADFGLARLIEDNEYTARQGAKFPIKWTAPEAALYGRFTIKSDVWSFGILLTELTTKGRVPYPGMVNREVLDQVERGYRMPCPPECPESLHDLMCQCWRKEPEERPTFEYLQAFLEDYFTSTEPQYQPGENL
Method: (§1) The inhibitory activity of the compounds on 7 kinases (BRAF, EGFR (ErbB1), EGFR (ErbB1) T790M L858R, FGFR2, KDR (VEGFR2), PDGFRA (PDGFR alpha), SRC) was evaluated by Invitrogen using the Z′-LYTE® technology. Briefly, the Z′-LYTE® biochemical assay employs a fluorescence-based, coupled-enzyme format and is based on the differential sensitivity of phosphorylated and non-phosphorylated peptides to proteolytic cleavage. The peptide substrate is labeled with two fluorophores—one at each end—that make up a FRET pair. A ratiometric method, which calculates the ratio (the Emission Ratio) of donor emission to acceptor emission after excitation of the donor fluorophore at 400 nm, is used to quantitate reaction progress.
(§2) The compounds are screened in 1% DMSO (final) in the well. For 10 point titrations, 3-fold serial dilutions are conducted from the starting concentration. All Peptide/Kinase Mixtures are diluted to a 2× working concentration in the appropriate Kinase Buffer. All ATP Solutions are diluted to a 4× working concentration in Kinase Buffer (50 mM HEPES pH 7.5, 0.01% BRIJ-35, 10 mM MgCl2, 1 mM EGTA). ATP Km apparent is previously determined using a Z′-LYTE® assay.
(§3) Each compound was incubated at a concentration of 100 nM and the tables 21 to 27 summarize the results obtained showing the inhibitory power of a compound.

[2] = target: T2, BRAF (Homo sapiens, UniProt P15056); experiment: In vitro kinase assay (Z'-LYTE, Invitrogen); assay type: biochemical; conditions: compound at 100 nM, ATP Km apparent, read-out: % of inhibition of the kinase compared to the control
T2 construct: purchased Invitrogen
T2 sequence (P15056 whole entry): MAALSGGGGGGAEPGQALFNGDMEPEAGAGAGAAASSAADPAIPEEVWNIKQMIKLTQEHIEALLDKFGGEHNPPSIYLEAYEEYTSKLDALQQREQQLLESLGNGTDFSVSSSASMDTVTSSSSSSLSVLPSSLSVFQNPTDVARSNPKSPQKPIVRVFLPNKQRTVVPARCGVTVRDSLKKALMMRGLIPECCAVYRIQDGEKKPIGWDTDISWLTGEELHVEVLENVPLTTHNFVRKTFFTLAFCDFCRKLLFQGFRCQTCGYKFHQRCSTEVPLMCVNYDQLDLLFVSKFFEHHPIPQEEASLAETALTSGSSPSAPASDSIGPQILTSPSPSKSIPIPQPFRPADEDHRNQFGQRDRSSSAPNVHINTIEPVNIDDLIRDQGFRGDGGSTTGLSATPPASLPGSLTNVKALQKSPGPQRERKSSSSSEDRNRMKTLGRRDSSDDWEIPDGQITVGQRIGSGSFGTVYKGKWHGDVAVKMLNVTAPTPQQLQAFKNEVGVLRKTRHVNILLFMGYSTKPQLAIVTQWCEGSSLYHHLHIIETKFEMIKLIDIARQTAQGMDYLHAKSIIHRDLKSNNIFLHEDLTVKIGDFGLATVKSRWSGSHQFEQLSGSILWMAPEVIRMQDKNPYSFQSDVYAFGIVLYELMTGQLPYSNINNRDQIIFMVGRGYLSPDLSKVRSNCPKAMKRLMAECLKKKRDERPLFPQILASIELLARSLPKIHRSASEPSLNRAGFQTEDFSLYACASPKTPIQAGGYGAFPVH
Method: as §1, §2, §3

[3] = target: T3, KDR (VEGFR2) (Homo sapiens, UniProt P35968); experiment: In vitro kinase assay (Z'-LYTE, Invitrogen); assay type: biochemical; conditions: compound at 100 nM, ATP Km apparent, read-out: % of inhibition of the kinase compared to the control
T3 construct: purchased Invitrogen
Method: as §1, §2, §3

[4] = target: T4, PDGFRA (PDGFR alpha) (Homo sapiens, UniProt P16234); experiment: In vitro kinase assay (Z'-LYTE, Invitrogen); assay type: biochemical; conditions: compound at 100 nM, ATP Km apparent, read-out: % of inhibition of the kinase compared to the control
T4 construct: purchased Invitrogen
T4 sequence (P16234 24-1089): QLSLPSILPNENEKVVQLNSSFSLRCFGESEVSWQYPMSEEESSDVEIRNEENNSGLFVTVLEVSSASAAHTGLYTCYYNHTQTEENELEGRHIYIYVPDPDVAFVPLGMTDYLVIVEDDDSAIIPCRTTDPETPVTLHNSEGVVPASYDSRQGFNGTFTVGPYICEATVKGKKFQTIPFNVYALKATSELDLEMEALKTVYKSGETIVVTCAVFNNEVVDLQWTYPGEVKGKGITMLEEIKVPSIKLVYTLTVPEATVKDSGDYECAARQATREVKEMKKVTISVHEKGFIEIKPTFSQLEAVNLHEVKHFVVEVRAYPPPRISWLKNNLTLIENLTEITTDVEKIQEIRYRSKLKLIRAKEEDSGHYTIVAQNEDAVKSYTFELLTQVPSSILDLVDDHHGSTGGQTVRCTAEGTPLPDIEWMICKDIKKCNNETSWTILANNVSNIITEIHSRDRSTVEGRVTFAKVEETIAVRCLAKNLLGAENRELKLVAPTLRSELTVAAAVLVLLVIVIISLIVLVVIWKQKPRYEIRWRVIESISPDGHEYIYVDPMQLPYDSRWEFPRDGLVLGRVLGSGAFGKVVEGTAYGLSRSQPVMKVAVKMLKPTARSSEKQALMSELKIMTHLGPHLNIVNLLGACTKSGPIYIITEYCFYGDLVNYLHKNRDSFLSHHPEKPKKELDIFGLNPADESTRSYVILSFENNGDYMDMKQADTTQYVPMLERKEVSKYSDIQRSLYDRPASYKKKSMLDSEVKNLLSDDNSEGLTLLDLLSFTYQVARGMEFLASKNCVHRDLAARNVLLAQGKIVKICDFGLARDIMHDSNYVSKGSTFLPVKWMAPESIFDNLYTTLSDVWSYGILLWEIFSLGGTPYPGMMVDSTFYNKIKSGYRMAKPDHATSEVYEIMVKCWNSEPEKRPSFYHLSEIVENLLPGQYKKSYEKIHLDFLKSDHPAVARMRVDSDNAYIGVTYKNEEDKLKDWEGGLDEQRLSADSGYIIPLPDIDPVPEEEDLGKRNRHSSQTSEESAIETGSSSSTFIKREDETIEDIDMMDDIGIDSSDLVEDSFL
Method: as §1, §2, §3

[5] = target: T5, FGFR2 (Homo sapiens, UniProt P21802); experiment: In vitro kinase assay (Z'-LYTE, Invitrogen); assay type: biochemical; conditions: compound at 100 nM, ATP Km apparent, read-out: % of inhibition of the kinase compared to the control
T5 construct: purchased Invitrogen
T5 sequence (P21802 22-821): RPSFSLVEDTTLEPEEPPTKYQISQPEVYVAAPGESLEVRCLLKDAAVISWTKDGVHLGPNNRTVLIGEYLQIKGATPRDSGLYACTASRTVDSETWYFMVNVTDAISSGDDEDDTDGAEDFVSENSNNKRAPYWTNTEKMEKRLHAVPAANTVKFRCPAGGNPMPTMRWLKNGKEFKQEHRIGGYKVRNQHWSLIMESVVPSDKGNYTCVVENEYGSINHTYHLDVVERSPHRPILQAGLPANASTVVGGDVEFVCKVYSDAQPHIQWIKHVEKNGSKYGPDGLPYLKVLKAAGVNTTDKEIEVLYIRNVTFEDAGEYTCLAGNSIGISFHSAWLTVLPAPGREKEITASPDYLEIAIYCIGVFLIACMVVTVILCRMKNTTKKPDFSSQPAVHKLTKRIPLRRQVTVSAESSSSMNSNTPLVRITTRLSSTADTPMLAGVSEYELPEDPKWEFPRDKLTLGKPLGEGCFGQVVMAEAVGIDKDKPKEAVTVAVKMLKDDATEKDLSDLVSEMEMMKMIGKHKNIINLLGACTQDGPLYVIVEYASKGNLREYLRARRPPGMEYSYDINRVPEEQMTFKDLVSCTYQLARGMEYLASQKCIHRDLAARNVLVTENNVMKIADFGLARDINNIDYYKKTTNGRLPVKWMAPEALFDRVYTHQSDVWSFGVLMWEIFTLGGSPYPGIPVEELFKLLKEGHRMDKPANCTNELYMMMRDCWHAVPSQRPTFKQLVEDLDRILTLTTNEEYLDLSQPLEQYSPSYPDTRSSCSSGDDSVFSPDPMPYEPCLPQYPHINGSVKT
Method: as §1, §2, §3

[6] = target: T6, EGFR (ErbB1) (Homo sapiens, UniProt P00533); experiment: In vitro kinase assay (Z'-LYTE, Invitrogen); assay type: biochemical; conditions: compound at 100 nM, ATP Km apparent, read-out: % of inhibition of the kinase compared to the control
T6 construct: purchased Invitrogen
T6 sequence (P00533 25-1210): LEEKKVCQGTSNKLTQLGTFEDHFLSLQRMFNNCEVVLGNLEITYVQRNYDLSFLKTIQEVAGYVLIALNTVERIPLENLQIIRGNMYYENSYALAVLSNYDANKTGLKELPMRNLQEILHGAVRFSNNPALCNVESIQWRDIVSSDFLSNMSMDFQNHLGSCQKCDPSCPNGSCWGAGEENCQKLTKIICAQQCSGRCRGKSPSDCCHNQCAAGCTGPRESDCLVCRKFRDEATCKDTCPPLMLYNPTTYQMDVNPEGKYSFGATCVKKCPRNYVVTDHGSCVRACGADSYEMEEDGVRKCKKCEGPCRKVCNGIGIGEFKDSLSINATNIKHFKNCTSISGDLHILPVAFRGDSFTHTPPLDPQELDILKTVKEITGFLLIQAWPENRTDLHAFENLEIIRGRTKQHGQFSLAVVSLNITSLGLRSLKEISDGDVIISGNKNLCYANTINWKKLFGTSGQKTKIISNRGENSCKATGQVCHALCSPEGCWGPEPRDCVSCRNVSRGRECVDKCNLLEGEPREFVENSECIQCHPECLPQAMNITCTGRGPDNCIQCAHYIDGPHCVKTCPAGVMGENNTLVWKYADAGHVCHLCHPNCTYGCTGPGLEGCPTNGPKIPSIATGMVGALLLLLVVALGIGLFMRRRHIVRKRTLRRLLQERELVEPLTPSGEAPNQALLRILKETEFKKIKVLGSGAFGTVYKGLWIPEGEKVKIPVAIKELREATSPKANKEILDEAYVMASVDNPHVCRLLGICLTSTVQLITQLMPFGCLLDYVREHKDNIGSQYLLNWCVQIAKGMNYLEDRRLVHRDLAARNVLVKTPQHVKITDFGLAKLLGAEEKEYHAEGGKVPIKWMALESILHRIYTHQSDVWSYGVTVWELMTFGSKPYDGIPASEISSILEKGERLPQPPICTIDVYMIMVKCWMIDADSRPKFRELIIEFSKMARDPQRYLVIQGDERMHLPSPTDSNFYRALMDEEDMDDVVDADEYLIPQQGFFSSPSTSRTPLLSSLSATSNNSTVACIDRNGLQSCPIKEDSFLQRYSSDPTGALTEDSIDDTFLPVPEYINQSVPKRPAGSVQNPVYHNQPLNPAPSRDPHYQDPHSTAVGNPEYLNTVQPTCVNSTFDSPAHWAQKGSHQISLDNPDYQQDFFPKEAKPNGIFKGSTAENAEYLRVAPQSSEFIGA
Method: as §1, §2, §3

[7] = test system: MDA-MB-231 cell line; experiment: In vitro cell proliferation assay (MTT); assay type: cell-based; conditions: Homo sapiens, MDA-MB-231, 72 hr, read-out: EC50, anti-proliferative activity
Method: (§4) Cancer cell lines (5×10^3 cells per well) or HUVEC (1×10^4 cells per well) or HRMEC (1×10^4 cells per well) were distributed in 96-well plates and incubating in duplicate with escalating concentrations (10 nM to 3 μM) of compounds for 72 hr. Cell proliferation was measured using MTT (3[4,5-dimethylthiazol-2-yl]-2,5-diphenyltetrazolium bromide). The EC50 values were calculated from sigmoidal dose-response curves utilizing Prism 5.0 from Graph-Pad Software (GraphPad Software, La Jolla, Calif., USA), with values normalized to those of DMSO-treated control wells (0%) and 1% SDS control wells (100%).

[8] = test system: A549 cell line; experiment: In vitro cell proliferation assay (MTT); assay type: cell-based; conditions: Homo sapiens, A549, 72 h, read-out: EC50, anti-proliferative activity
Method: as §4

[9] = test system: HepG2 cell line; experiment: In vitro cell proliferation assay (MTT); assay type: cell-based; conditions: Homo sapiens, HepG2, 72 hr, read-out: EC50, anti-proliferative activity
Method: as §4

[10] = test system: HeLa cell line; experiment: In vitro cell proliferation assay (MTT); assay type: cell-based; conditions: Homo sapiens, 72 hr, read-out: EC50, anti-proliferative activity
Method: as §4

[11] = test system: HUVEC cells; experiment: In vitro cell proliferation assay (MTT); assay type: cell-based; conditions: Homo sapiens, 72 hr, read-out: EC50, anti-proliferative activity
Method: as §4

Row | inhibition at 0.1 µM [1] [%] | inhibition at 0.1 µM [2] [%] | inhibition at 0.1 µM [3] [%] | inhibition at 0.1 µM [4] [%] | inhibition at 0.1 µM [5] [%] | inhibition at 0.1 µM [6] [%] | EC50 ([7]; EC50 ≧ 1 μM) [nM] | EC50 ([8]; EC50 ≧ 1 μM) [nM] | EC50 ([9]; EC50 ≧ 1 μM) [nM] | EC50 ([10]; EC50 ≧ 1 μM) [nM] | EC50 ([7]; EC50 ≦ 100 nM) [nM] | EC50 ([8]; 100 nM < EC50 < 1 μM) [nM] | EC50 ([9]; 100 nM < EC50 < 1 μM) [nM] | EC50 ([10]; EC50 ≦ 100 nM) [nM] | EC50 ([7]; 100 nM < EC50 < 1 μM) [nM] | EC50 ([9]; EC50 ≦ 100 nM) [nM] | EC50 ([10]; 100 nM < EC50 < 1 μM) [nM] | SMILES | EC50 ([11]; EC50 ≧ 1 μM) [nM] | EC50 ([11]; EC50 ≦ 100 nM) [nM] | EC50 ([11]; 100 nM < EC50 < 1 μM) [nM]
1 | ≥ 50 | < 50 | < 50 | ≥ 50 | < 50 | ≥ 50 | ≥ 1000 | ≥ 1000 | ≥ 1000 | ≥ 1000 | – | – | – | – | – | – | – | COC(=O)c1cc2cc(CCc3cc(NC(=O)C4CCC(C(F)(F)F)CC4)ccc3C)cnc2[nH]1 (centres unmarked) [OR1057, 5-(2-{2-Methyl-5-[(4-trifluoromethyl-cyclohexanecarbonyl)-amino]-phenyl)-ethyl)-1H-pyrrolo[2,3-b]pyridine-2-carboxylic acid methyl ester] | ≥ 1000 | – | –
2 | – | < 50 | ≥ 50 | – | ≥ 50 | ≥ 50 | – | – | – | – | ≤ 100 | 100 to 1000 | 100 to 1000 | ≤ 100 | – | – | – | COC(=O)c1cc2cc(CCc3cccc(NC(=O)c4ccc(CN5CCN(C)CC5)c(C(F)(F)F)c4)c3)cnc2[nH]1 [OR0921, 5-(2-{3-[4-(4-Methyl-piperazin-1-ylmethyl)-3-trifluoromethyl-benzoylamino]-phenyl}-ethyl)-1H-pyrrolo[2,3-b]pyridine-2-carboxylic acid methyl ester] | – | ≤ 100 | –
3 | – | ≥ 50 | ≥ 50 | – | < 50 | < 50 | ≥ 1000 | ≥ 1000 | ≥ 1000 | ≥ 1000 | – | – | – | – | – | – | – | COC(=O)c1cc2cc(CCc3cc(NC(=O)c4cncc(C(F)(F)F)c4)ccc3Cl)cnc2[nH]1 [OR1008, 5-(2-{2-Chloro-5-[(5-trifluoromethyl-pyridine-3-carbonyl)-amino]-phenyl}-ethyl)-1H-pyrrolo[2,3-b]pyridine-2-carboxylic acid methyl ester] | ≥ 1000 | – | –
4 | < 50 | < 50 | < 50 | ≥ 50 | < 50 | < 50 | – | ≥ 1000 | – | ≥ 1000 | – | – | – | – | 100 to 1000 | ≤ 100 | – | CC(=O)c1cc2cc(CCc3cc(NC(=O)Nc4cccc(C(F)(F)F)c4)ccc3C)cnc2[nH]1 [OR0919, 1-{3-[2-(2-Acetyl-1H-pyrrolo[2,3-b]pyridin-5-yl)-ethyl]-4-methyl-phenyl}-3-(3-trifluoromethyl-phenyl)-urea] | ≥ 1000 | – | –
5 | – | < 50 | ≥ 50 | – | < 50 | ≥ 50 | – | ≥ 1000 | ≥ 1000 | ≥ 1000 | – | – | – | – | 100 to 1000 | – | – | COC(=O)c1cc2cc(NCCc3cccc(NC(=O)c4ccc(CN5CCN(C)CC5)c(C(F)(F)F)c4)c3)cnc2[nH]1 [OR1019, 5-(2-{3-[4-(4-Methyl-piperazin-1-ylmethyl)-3-trifluoromethyl-benzoylamino]-phenyl}-ethylamino)-1H-pyrrolo[2,3-b]pyridine-2-carboxylic acid methyl ester] | ≥ 1000 | – | –
6 | < 50 | ≥ 50 | < 50 | < 50 | < 50 | < 50 | ≥ 1000 | ≥ 1000 | – | ≥ 1000 | – | – | 100 to 1000 | – | – | – | – | CC(=O)c1cc2cc(CCc3cc(NC(=O)Cc4cccc(C(F)(F)F)c4)ccc3C)cnc2[nH]1 [OR0966, N-{3-[2-(2-Acetyl-1H-pyrrolo[2,3-b]pyridin-5-yl)-ethyl]-4-methyl-phenyl}-2-(3-trifluoromethyl-phenyl)-acetamide] | ≥ 1000 | – | –
7 | < 50 | < 50 | ≥ 50 | ≥ 50 | < 50 | < 50 | ≥ 1000 | ≥ 1000 | ≥ 1000 | ≥ 1000 | – | – | – | – | – | – | – | COC(=O)c1cc2cc(CSc3cccc(NC(=O)c4cccc(C(F)(F)F)c4)c3)cnc2[nH]1 [OR1066, 5-[3-(3-Trifluoromethyl-benzoylamino)-phenylsulfanylmethyl]-1H-pyrrolo[2,3-b]pyridine-2-carboxylic acid methyl ester] | ≥ 1000 | – | –
8 | – | < 50 | < 50 | – | < 50 | < 50 | ≥ 1000 | ≥ 1000 | – | ≥ 1000 | – | – | 100 to 1000 | – | – | – | – | CC(=O)c1cc2cc(CCc3cc(NC(=S)Nc4cccc(C(F)(F)F)c4)ccc3C)cnc2[nH]1 [OR1017, 1-{3-[2-(2-Acetyl-1H-pyrrolo[2,3-b]pyridin-5-yl)-ethyl]-4-methyl-phenyl}-3-(3-trifluoromethyl-phenyl)-thiourea] | ≥ 1000 | – | –
9 | – | < 50 | ≥ 50 | – | < 50 | < 50 | ≥ 1000 | ≥ 1000 | ≥ 1000 | ≥ 1000 | – | – | – | – | – | – | – | COC(=O)c1cc2cc(CCc3cccc(CNC(=O)c4ccc(CN5CCN(C)CC5)c(C(F)(F)F)c4)c3)cnc2[nH]1 [OR1018, 5-[2-(3-{[4-(4-Methyl-piperazin-1-ylmethyl)-3-trifluoromethyl-benzoylamino]-methyl}-phenyl)-ethyl]-1H-pyrrolo[2,3-b]pyridine-2-carboxylic acid methyl ester] | ≥ 1000 | – | –
10 | – | < 50 | ≥ 50 | – | ≥ 50 | ≥ 50 | ≥ 1000 | ≥ 1000 | ≥ 1000 | ≥ 1000 | – | – | – | – | – | – | – | COC(=O)c1cc2cc(CCc3cc(NC(=O)c4ccc(CN5CCC(N(C)C)C5)c(C(F)(F)F)c4)ccc3Cl)cnc2[nH]1 (centres unmarked) [OR1007, 5-(2-{2-Chloro-5-[4-(3-dimethylamino-pyrrolidin-1-ylmethyl)-3-trifluoromethyl-benzoylamino]-phenyl}-ethyl)-1H-pyrrolo[2,3-b]pyridine-2-carboxylic acid methyl ester] | – | – | 100 to 1000
11 | – | < 50 | ≥ 50 | – | < 50 | < 50 | ≥ 1000 | ≥ 1000 | ≥ 1000 | ≥ 1000 | – | – | – | – | – | – | – | COC(=O)c1cc2cc(CNCc3cccc(NC(=O)c4ccc(CN5CCN(C)CC5)c(C(F)(F)F)c4)c3)cnc2[nH]1 [OR1020, 5-({3-[4-(4-Methyl-piperazin-1-ylmethyl)-3-trifluoromethyl-benzoylamino]-benzylamino}-methyl)-1H-pyrrolo[2,3-b]pyridine-2-carboxylic acid methyl ester] | ≥ 1000 | – | –
12 | – | < 50 | ≥ 50 | – | ≥ 50 | ≥ 50 | – | – | ≥ 1000 | – | – | 100 to 1000 | – | – | 100 to 1000 | – | 100 to 1000 | COC(=O)c1cc2cc(CCc3cc(NC(=O)c4ccc(CN5CCN(C)CC5)c(C(F)(F)F)c4)ccc3Cl)cnc2[nH]1 [OR1006, 5-(2-{2-Chloro-5-[4-(4-methyl-piperazin-1-ylmethyl)-3-trifluoromethyl-benzoylamino]-phenyl}ethyl)-1H-pyrrolo[2,3-b]pyridine-2-carboxylic acid methyl ester] | – | ≤ 100 | –
